Activity calls are given as the source filed them. The rule behind the calls is not given here.
Test system: CCRIS mutagenicity, Ames/micronucleus/aberration tests
Assay: CCRIS mutagenicity studies
[1] = Test System: AMES SALMONELLA TYPHIMURIUM, Strain/Indicator: TA98, Metabolic Activation: NONE, Method: STANDARD PLATE
[2] = Test System: AMES SALMONELLA TYPHIMURIUM, Strain/Indicator: TA98, Metabolic Activation: RAT, LIVER, S-9, AROCLOR 1254, Method: STANDARD PLATE
[3] = Test System: AMES SALMONELLA TYPHIMURIUM, Strain/Indicator: TA100, Metabolic Activation: NONE, Method: STANDARD PLATE
[4] = Test System: AMES SALMONELLA TYPHIMURIUM, Strain/Indicator: TA100, Metabolic Activation: RAT, LIVER, S-9, AROCLOR 1254, Method: STANDARD PLATE
[5] = Test System: AMES SALMONELLA TYPHIMURIUM, Strain/Indicator: TA1535, Metabolic Activation: NONE, Method: STANDARD PLATE
[6] = Test System: AMES SALMONELLA TYPHIMURIUM, Strain/Indicator: TA1535, Metabolic Activation: RAT, LIVER, S-9, AROCLOR 1254, Method: STANDARD PLATE
[7] = Test System: AMES SALMONELLA TYPHIMURIUM, Strain/Indicator: TA1537, Metabolic Activation: NONE, Method: STANDARD PLATE
[8] = Test System: AMES SALMONELLA TYPHIMURIUM, Strain/Indicator: TA1537, Metabolic Activation: RAT, LIVER, S-9, AROCLOR 1254, Method: STANDARD PLATE
[9] = Test System: MOUSE LYMPHOMA, Strain/Indicator: L5178Y (TK+/TK-), Metabolic Activation: NONE, Method: MICROWELL

SMILES: C=CCc1ccc(O)c(OC)c1
- mutagenic call (End Point: IN VITRO CHROMOSOMAL ABERRATIONS, Test System: CHINESE HAMSTER OVARY CELLS, Metabolic Activation: NONE): inactive; negative
- mutagenic call (End Point: IN VITRO CHROMOSOMAL ABERRATIONS, Test System: CHINESE HAMSTER OVARY CELLS, Metabolic Activation: RAT, LIVER, S-9, AROCLOR 1254): active; positive
- mutagenic call (End Point: IN VITRO CHROMOSOMAL ABERRATIONS, Test System: CHO-WBL CELLS, Metabolic Activation: RAT, LIVER, S-9, PHENOBARBITAL AND BETA-NAPHTHOFLAVONE): active; positive (at 24 hr)
- mutagenic call (End Point: IN VITRO CHROMOSOMAL ABERRATIONS, Test System: SYRIAN HAMSTER EMBRYO (SHE) CELLS, Metabolic Activation: NONE): active; positive (structural changes)
- mutagenic call (End Point: IN VITRO CHROMOSOMAL ABERRATIONS, Test System: SYRIAN HAMSTER EMBRYO (SHE) CELLS, Metabolic Activation: RAT, LIVER, S-9): active; positive (structural changes)
- mutagenic call (End Point: IN VIVO MICRONUCLEUS, Test System: BONE MARROW POLYCHROMATIC ERYTHROCYTES, Species: MOUSE, Strain/Sex: DDY/MALE, Route: IP): inactive; negative
- mutagenic call (Test System: AMES SALMONELLA TYPHIMURIUM, Strain/Indicator: TA97, Metabolic Activation: NONE, Method: PREINCUBATION (120 MIN)): inactive; negative
- mutagenic call (Test System: AMES SALMONELLA TYPHIMURIUM, Strain/Indicator: TA97, Metabolic Activation: S-9, Method: PREINCUBATION (120 MIN)): inactive; negative
- mutagenic call (Test System: AMES SALMONELLA TYPHIMURIUM, Strain/Indicator: TA98, Metabolic Activation: HAMSTER, LIVER, S-9, AROCLOR 1254, Method: PREINCUBATION): inactive; negative
- mutagenic call (Test System: AMES SALMONELLA TYPHIMURIUM, Strain/Indicator: TA98, Metabolic Activation: NONE, Method: PREINCUBATION): inactive; negative
- mutagenic call (Test System: AMES SALMONELLA TYPHIMURIUM, Strain/Indicator: TA98, Metabolic Activation: NONE, Method: PREINCUBATION (120 MIN)): inactive; negative
- mutagenic call [1]: inactive; negative
- mutagenic call (Test System: AMES SALMONELLA TYPHIMURIUM, Strain/Indicator: TA98, Metabolic Activation: RAT, LIVER, S-9, AROCLOR 1254, Method: PREINCUBATION): inactive; negative
- mutagenic call [2]: inactive; negative
- mutagenic call (Test System: AMES SALMONELLA TYPHIMURIUM, Strain/Indicator: TA98, Metabolic Activation: S-9, Method: PREINCUBATION (120 MIN)): inactive; negative
- mutagenic call (Test System: AMES SALMONELLA TYPHIMURIUM, Strain/Indicator: TA98, Metabolic Activation: S-9, Method: STANDARD PLATE): inactive; negative
- mutagenic call (Test System: AMES SALMONELLA TYPHIMURIUM, Strain/Indicator: TA100, Metabolic Activation: HAMSTER, LIVER, S-9, AROCLOR 1254, Method: PREINCUBATION): inactive; negative
- mutagenic call (Test System: AMES SALMONELLA TYPHIMURIUM, Strain/Indicator: TA100, Metabolic Activation: NONE, Method: PREINCUBATION): inactive; negative
- mutagenic call (Test System: AMES SALMONELLA TYPHIMURIUM, Strain/Indicator: TA100, Metabolic Activation: NONE, Method: PREINCUBATION (120 MIN)): inactive; negative
- mutagenic call [3]: inactive; negative
- mutagenic call (Test System: AMES SALMONELLA TYPHIMURIUM, Strain/Indicator: TA100, Metabolic Activation: RAT, LIVER, S-9, AROCLOR 1254, Method: PREINCUBATION): inactive; negative
- mutagenic call [4]: inactive; negative
- mutagenic call (Test System: AMES SALMONELLA TYPHIMURIUM, Strain/Indicator: TA100, Metabolic Activation: S-9, Method: PREINCUBATION (120 MIN)): inactive; negative
- mutagenic call (Test System: AMES SALMONELLA TYPHIMURIUM, Strain/Indicator: TA100, Metabolic Activation: S-9, Method: STANDARD PLATE): inactive; negative
- mutagenic call (Test System: AMES SALMONELLA TYPHIMURIUM, Strain/Indicator: TA1535, Metabolic Activation: HAMSTER, LIVER, S-9, AROCLOR 1254, Method: PREINCUBATION): inactive; negative
- mutagenic call (Test System: AMES SALMONELLA TYPHIMURIUM, Strain/Indicator: TA1535, Metabolic Activation: NONE, Method: PREINCUBATION): inactive; negative
- mutagenic call [5]: inactive; negative
- mutagenic call (Test System: AMES SALMONELLA TYPHIMURIUM, Strain/Indicator: TA1535, Metabolic Activation: PAPS, Method: STANDARD PLATE): inactive; negative
- mutagenic call (Test System: AMES SALMONELLA TYPHIMURIUM, Strain/Indicator: TA1535, Metabolic Activation: RAT, LIVER, S-9, AROCLOR 1254, PAPS, Method: STANDARD PLATE): active; positive
- mutagenic call (Test System: AMES SALMONELLA TYPHIMURIUM, Strain/Indicator: TA1535, Metabolic Activation: RAT, LIVER, S-9, AROCLOR 1254, Method: PREINCUBATION): inactive; negative
- mutagenic call [6]: inactive; negative
- mutagenic call (Test System: AMES SALMONELLA TYPHIMURIUM, Strain/Indicator: TA1537, Metabolic Activation: HAMSTER, LIVER, S-9, AROCLOR 1254, Method: PREINCUBATION): inactive; negative
- mutagenic call (Test System: AMES SALMONELLA TYPHIMURIUM, Strain/Indicator: TA1537, Metabolic Activation: NONE, Method: PREINCUBATION): inactive; negative
- mutagenic call [7]: inactive; negative
- mutagenic call (Test System: AMES SALMONELLA TYPHIMURIUM, Strain/Indicator: TA1537, Metabolic Activation: RAT, LIVER, S-9, AROCLOR 1254, Method: PREINCUBATION): inactive; negative
- mutagenic call [8]: inactive; negative
- mutagenic call (Test System: AMES SALMONELLA TYPHIMURIUM, Strain/Indicator: TA1538, Metabolic Activation: NONE, Method: STANDARD PLATE): inactive; negative
- mutagenic call (Test System: AMES SALMONELLA TYPHIMURIUM, Strain/Indicator: TA1538, Metabolic Activation: RAT, LIVER, S-9, AROCLOR 1254, Method: STANDARD PLATE): inactive; negative
- mutagenic call [9]: active; positive
- mutagenic call (Test System: MOUSE LYMPHOMA, Strain/Indicator: L5178Y (TK+/TK-), Metabolic Activation: S-9, Method: MICROWELL): active; positive

SMILES: CC1=CC(=O)CC(C)(C)C1
- mutagenic call (End Point: IN VITRO CHROMOSOMAL ABERRATIONS, Test System: CHINESE HAMSTER LUNG FIBROBLAST CELLS (CHL/IU), Metabolic Activation: RAT, LIVER, S-9, PHENOBARBITAL AND 5,6-BENZOFLAVONE): active; positive (structural changes)
- mutagenic call (End Point: IN VITRO CHROMOSOMAL ABERRATIONS, Test System: CHO CELLS, Metabolic Activation: NONE): inactive; negative; precipitation occurred at 1600 ug/ml
- mutagenic call (End Point: IN VITRO CHROMOSOMAL ABERRATIONS, Test System: CHO CELLS, Metabolic Activation: RAT, LIVER, S-9, AROCLOR 1254): inactive; negative
- mutagenic call (Test System: AMES SALMONELLA TYPHIMURIUM, Strain/Indicator: TA98, Metabolic Activation: HAMSTER, LIVER, S-9, AROCLOR 1254, Method: STANDARD PLATE): inactive; negative
- mutagenic call [1]: inactive; negative
- mutagenic call [2]: inactive; negative
- mutagenic call (Test System: AMES SALMONELLA TYPHIMURIUM, Strain/Indicator: TA100, Metabolic Activation: HAMSTER, LIVER, S-9, AROCLOR 1254, Method: STANDARD PLATE): inactive; negative
- mutagenic call [3]: inactive; negative
- mutagenic call [4]: inactive; negative
- mutagenic call (Test System: AMES SALMONELLA TYPHIMURIUM, Strain/Indicator: TA1535, Metabolic Activation: HAMSTER, LIVER, S-9, AROCLOR 1254, Method: STANDARD PLATE): inactive; negative
- mutagenic call [5]: inactive; negative
- mutagenic call [6]: inactive; negative
- mutagenic call (Test System: AMES SALMONELLA TYPHIMURIUM, Strain/Indicator: TA1537, Metabolic Activation: HAMSTER, LIVER, S-9, AROCLOR 1254, Method: STANDARD PLATE): inactive; negative
- mutagenic call [7]: inactive; negative
- mutagenic call [8]: inactive; negative
- mutagenic call [9]: inactive; negative
- mutagenic call (Test System: MOUSE LYMPHOMA, Strain/Indicator: L5178Y (TK+/TK-), Metabolic Activation: RAT, LIVER, S-9, AROCLOR 1242 AND AROCLOR 1254 (2:1), Method: SUSPENSION/PLATE): inactive; negative
- mutagenic call (Test System: UDS RAT HEPATOCYTES, Strain/Indicator: BROMODEOXYURIDINE INCORP, Metabolic Activation: NONE, Method: FLOW CYTOMETRIC ANALYSIS): active; positive
- mutagenic call (Test System: UDS RAT HEPATOCYTES, Strain/Indicator: THY INCORP, Metabolic Activation: NONE, Method: AUTORADIOGRAPHY): active; positive

SMILES: NC(=O)c1csc([N+](=O)[O-])c1
- mutagenic call [1]: active; positive
- mutagenic call [3]: active; positive
